# Results from BindingDB's records for doi:10.1021/jm401604x (University of Auckland, 2014).
# Test: Inhibition of recombinant perforin (unknown origin)-mediated lysis of human [51Cr]-labelled Jurkat cells assessed as release of [51Cr] preincubated for 30 mins followed by addition of cells measured after 4 hrs by gamma counting analysis
row,Compound,IC50
1,CN1CCN(CCCN2Cc3cc(-c4ccc(/C=C5/NC(=S)NC5=O)s4)ccc3C2=O)CC1,> 20 µM
2,CN(C)CCCN1Cc2cc(-c3ccc(/C=C4/NC(=S)NC4=O)s3)ccc2C1=O,> 20 µM
3,O=C1NC(=S)N/C1=C/c1ccc(-c2ccc(C(=O)NCCN3CCOCC3)cc2)s1,> 20 µM
4,O=C1NC(=S)N/C1=C/c1ccc(-c2ccc(C(=O)N3CCOCC3)cc2)s1,> 20 µM
5,O=C1NC(=S)N/C1=C/c1ccc(-c2ccccc2Cl)s1,> 20 µM
6,O=C1NC(=S)N/C1=C/c1ccc(-c2ccccc2)s1,> 20 µM
